Values joined by “and” are separate entries in the source; they are usually repeats but may differ in a detail not shown here. Equal values may be shown once. Inconclusive results and toxic doses are left out.
Test system: L1210 leukemia ip in BDF1 mice, survival T/C
Test: NCI In Vivo Anticancer Drug Screen. Data for tumor model L1210 Leukemia (intraperitoneal) in B6D2F1 (BDF1) mice
Details: endpoint: mean survival time, higher = longer survival
How it was run: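 Ratio derived from survival: compound-dosed mice over vehicle-dosed mice, all bearing a transplantable tumor.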

[1] = dose: 100.0 mg/kg/injection, schedule: Q04DX002 (ip), vehicle: saline with Tween-80
[2] = dose: 200.0 mg/kg/injection, schedule: Q04DX002 (ip), vehicle: saline with Tween-80
[3] = dose: 400.0 mg/kg/injection, schedule: Q04DX002 (ip), vehicle: saline with Tween-80
[4] = dose: 100.0 mg/kg/injection, schedule: Q04DX002 (ip), vehicle: saline
[5] = dose: 200.0 mg/kg/injection, schedule: Q04DX002 (ip), vehicle: saline
[6] = dose: 100.0 mg/kg/injection, schedule: Q01DX001 (ip), vehicle: saline
[7] = dose: 100.0 mg/kg/injection, schedule: Q04DX003 (ip), vehicle: saline
[8] = dose: 200.0 mg/kg/injection, schedule: Q01DX001 (ip), vehicle: saline
[9] = dose: 200.0 mg/kg/injection, schedule: Q04DX003 (ip), vehicle: saline
[10] = dose: 400.0 mg/kg/injection, schedule: Q01DX001 (ip), vehicle: saline
[11] = dose: 400.0 mg/kg/injection, schedule: Q04DX003 (ip), vehicle: saline
[12] = dose: 100.0 mg/kg/injection, schedule: Q04DX003 (ip), vehicle: saline with Tween-80
[13] = dose: 200.0 mg/kg/injection, schedule: Q04DX003 (ip), vehicle: saline with Tween-80
[14] = dose: 400.0 mg/kg/injection, schedule: Q04DX003 (ip), vehicle: saline with Tween-80
[15] = dose: 100.0 mg/kg/injection, schedule: Q01DX009 (ip), vehicle: Klucel (hydroxypropylcellulose) (HPC)
[16] = dose: 100.0 mg/kg/injection, schedule: Q04DX003 (ip), vehicle: Klucel (hydroxypropylcellulose) (HPC)
[17] = dose: 200.0 mg/kg/injection, schedule: Q01DX009 (ip), vehicle: Klucel (hydroxypropylcellulose) (HPC)
[18] = dose: 200.0 mg/kg/injection, schedule: Q04DX003 (ip), vehicle: Klucel (hydroxypropylcellulose) (HPC)
[19] = dose: 400.0 mg/kg/injection, schedule: Q01DX009 (ip), vehicle: Klucel (hydroxypropylcellulose) (HPC)
[20] = dose: 400.0 mg/kg/injection, schedule: Q04DX003 (ip), vehicle: Klucel (hydroxypropylcellulose) (HPC)
[21] = dose: 50.0 mg/kg/injection, schedule: Q01DX001 (ip), vehicle: saline
[22] = dose: 100.0 mg/kg/injection, schedule: Q01DX001 (ip), vehicle: saline with Tween-80
[23] = dose: 200.0 mg/kg/injection, schedule: Q01DX001 (ip), vehicle: saline with Tween-80
[24] = dose: 400.0 mg/kg/injection, schedule: Q01DX001 (ip), vehicle: saline with Tween-80
[25] = dose: 100.0 mg/kg/injection, schedule: Q01DX009 (ip), vehicle: saline with Tween-80
[26] = dose: 200.0 mg/kg/injection, schedule: Q01DX009 (ip), vehicle: saline with Tween-80
[27] = dose: 100.0 mg/kg/injection, schedule: Q04DX002 (ip), vehicle: Klucel (hydroxypropylcellulose) (HPC)
[28] = dose: 200.0 mg/kg/injection, schedule: Q04DX002 (ip), vehicle: Klucel (hydroxypropylcellulose) (HPC)
[29] = dose: 400.0 mg/kg/injection, schedule: Q04DX002 (ip), vehicle: Klucel (hydroxypropylcellulose) (HPC)

CCC(=O)c1ccc(OC)cc1
T/C [1]: 91 % of control
T/C [2]: 91 % of control
T/C [3]: 91 % of control

COC(=O)COc1ccc(Cl)cc1Cl
T/C [4]: 100 % of control
T/C [5]: 107 % of control
T/C (dose: 400.0 mg/kg/injection, schedule: Q04DX002 (ip), vehicle: saline): 100 % of control

CC1CC(C(C)CC(=O)O)C(=O)O1 (stereo not drawn)
T/C [6]: 102 % of control
T/C [7]: 111 % of control
T/C [8]: 95 % of control
T/C [9]: 108 % of control
T/C [10]: 97 % of control
T/C [11]: 101 % of control

CC1(C)CC(=O)C2=C(C1)OC1=C(C(=O)CC(C)(C)C1)C2c1ccccc1[N+](=O)[O-]
T/C [12]: 98 % of control
T/C [13]: 88 % of control
T/C [14]: 97 % of control

COc1ccc(NC(=O)Nc2cc(C)ccc2C)cc1
T/C [15]: 89 % of control
T/C [16]: 93 % of control
T/C [17]: 86 % of control
T/C [18]: 93 % of control
T/C [19]: 92 % of control
T/C [20]: 87 % of control

O=S(=O)(O)c1cc(Cl)cc(N=Nc2ccc(O)cc2O)c1O
T/C [21]: 98 % of control
T/C [6]: 98 % of control
T/C [8]: 104 % of control
T/C [10]: 98 % of control

COc1ccc(NC(=S)/C(=C(/[O-])c2ccc(C)cc2)[n+]2ccccc2)cc1
T/C [22]: 92 % of control
T/C [1]: 95 % of control and 96 % of control
T/C [12]: 105 % of control and 108 % of control and 90 % of control
T/C [23]: 102 % of control
T/C [2]: 97 % of control and 110 % of control
T/C [13]: 93 % of control and 98 % of control and 105 % of control
T/C [24]: 94 % of control
T/C [3]: 98 % of control and 104 % of control
T/C [14]: 93 % of control and 95 % of control and 91 % of control

COc1cc(CCO)cc(OC)c1
T/C (dose: 100.0 mg/kg/injection, schedule: Q01DX001 (ip), vehicle: carboxymethylcellulose (CMC)): 86 % of control
T/C (dose: 200.0 mg/kg/injection, schedule: Q01DX001 (ip), vehicle: carboxymethylcellulose (CMC)): 86 % of control

Cc1ccc(S(=O)(=O)Oc2ccc(-c3ccc(Br)cc3)cc2)cc1
T/C (dose: 75.0 mg/kg/injection, schedule: Q01DX001 (ip), vehicle: saline): 97 % of control
T/C (dose: 150.0 mg/kg/injection, schedule: Q01DX001 (ip), vehicle: saline): 105 % of control
T/C (dose: 300.0 mg/kg/injection, schedule: Q01DX001 (ip), vehicle: saline): 105 % of control

COc1ccc(C(CCCC(=O)O)c2ccc(OC)cc2)cc1
T/C [6]: 112 % of control
T/C [8]: 104 % of control
T/C [10]: 104 % of control

CCOC(=O)C(O)c1ccc[nH]1 (stereo not drawn)
T/C [22]: 115 % of control
T/C [12]: 89 % of control
T/C [23]: 115 % of control
T/C [24]: 111 % of control
T/C [14]: 95 % of control

Cn1c2c(c3ccccc31)=NN1CCN=C1N=2
T/C (dose: 6.25 mg/kg/injection, schedule: Q04DX002 (ip), vehicle: saline): 107 % of control
T/C (dose: 12.5 mg/kg/injection, schedule: Q04DX002 (ip), vehicle: saline): 103 % of control

O=C1c2ccccc2C(=O)N1C/C(Cl)=C/Cl
T/C [25]: 92 % of control
T/C [12]: 97 % of control
T/C [26]: 93 % of control
T/C [13]: 93 % of control
T/C (dose: 400.0 mg/kg/injection, schedule: Q01DX009 (ip), vehicle: saline with Tween-80): 91 % of control
T/C [14]: 92 % of control

CNCCC(=O)C1CCC(OC)CC1 (stereo not drawn)
T/C [4]: 92 % of control
T/C [5]: 110 % of control

CC1CN=C(c2ccc(NC(=O)NCCCCCCCCCCNC(=O)Nc3ccc(C4=NCC(C)N4)cc3)cc2)N1 (stereo not drawn)
T/C (dose: 5.0 mg/kg/injection, schedule: Q01DX015 (ip), vehicle: water): 96 % of control
T/C (dose: 10.0 mg/kg/injection, schedule: Q01DX015 (ip), vehicle: water): 102 % of control
T/C (dose: 20.0 mg/kg/injection, schedule: Q01DX015 (ip), vehicle: water): 103 % of control

O=C(NCc1ccccc1)Nc1ccccc1
T/C [16]: 96 % of control
T/C [18]: 100 % of control
T/C [20]: 96 % of control

CC(=O)OCC(C)CCC(=O)C(C)C1C(=O)CC2CC3CC(OC(C)=O)CCC3(C)CC21C (stereo not drawn)
T/C [27]: 96 % of control
T/C [28]: 100 % of control
T/C [29]: 96 % of control

NCCCCC(N)C(=O)NCCCCCCN(CCCCCCNC(=O)C(N)CCCCN)C(=O)C(N)CCCCN (stereo not drawn)
T/C [6]: 92 % of control

c1ccc(N=Nc2cccnn2)cc1
T/C (dose: 50.0 mg/kg/injection, schedule: Q04DX002 (ip), vehicle: saline with Tween-80): 97 % of control
T/C [1]: 105 % of control
T/C [2]: 94 % of control

CC(=O)Oc1cc(C)cc(OC(C)=O)n1
T/C [21]: 104 % of control
T/C [6]: 98 % of control
T/C [8]: 98 % of control
T/C [10]: 96 % of control

CN(Cc1cnc2nc(N)nc(N)c2n1)c1cc(Cl)c(C(=O)NC(CCC(=O)O)C(=O)O)cc1Cl (stereo not drawn)
T/C (dose: 6.25 mg/kg/injection, schedule: Q01DX009 (ip), vehicle: sodium bicarbonate): 106 % of control
T/C (dose: 12.5 mg/kg/injection, schedule: Q01DX009 (ip), vehicle: sodium bicarbonate): 115 % of control

O=C(CCCc1ccc(N(CCCl)CCCl)cc1)Nc1ncccn1
T/C (dose: 1.0 mg/kg/injection, schedule: Q01DX015 (ip), vehicle: carboxymethylcellulose (CMC)): 113 % of control
T/C (dose: 3.0 mg/kg/injection, schedule: Q01DX015 (ip), vehicle: carboxymethylcellulose (CMC)): 118 % of control
T/C (dose: 6.0 mg/kg/injection, schedule: Q01DX015 (ip), vehicle: carboxymethylcellulose (CMC)): 118 % of control
T/C (dose: 6.25 mg/kg/injection, schedule: Q01DX001 (ip), vehicle: saline): 110 % of control
T/C (dose: 12.0 mg/kg/injection, schedule: Q01DX015 (ip), vehicle: carboxymethylcellulose (CMC)): 123 % of control
T/C (dose: 12.5 mg/kg/injection, schedule: Q01DX001 (ip), vehicle: saline): 110 % of control
T/C (dose: 25.0 mg/kg/injection, schedule: Q01DX001 (ip), vehicle: saline): 121 % of control

Cn1ncc(C#N)c1N
T/C [21]: 98 % of control
T/C [6]: 110 % of control
T/C [27]: 98 % of control
T/C [8]: 95 % of control
T/C [28]: 91 % of control
T/C [10]: 95 % of control
T/C [29]: 100 % of control

CC(=O)Nn1nnnc1N
T/C [7]: 99 % of control
T/C [9]: 91 % of control
T/C [11]: 105 % of control

O=C(Nc1ccsn1)c1ccc(Cl)cc1Cl
T/C (dose: 50.0 mg/kg/injection, schedule: Q01DX009 (ip), vehicle: saline with Tween-80): 111 % of control
T/C [25]: 91 % of control
T/C [26]: 91 % of control

O=C(Nc1ccc(C2=NCCN2)cc1)Nc1cccc(NC(=S)Nc2ccc(C3=NCCN3)cc2)c1
T/C (dose: 1.88 mg/kg/injection, schedule: Q01DX Z (ip), vehicle: saline): 95 % of control
T/C (dose: 3.75 mg/kg/injection, schedule: Q01DX Z (ip), vehicle: saline): 103 % of control
T/C (dose: 7.5 mg/kg/injection, schedule: Q01DX Z (ip), vehicle: saline): 113 % of control
T/C (dose: 15.0 mg/kg/injection, schedule: Q01DX Z (ip), vehicle: saline): 150 % of control
T/C (dose: 15.0 mg/kg/injection, schedule: Q01DX Z (oral), vehicle: saline): 97 % of control
T/C (dose: 30.0 mg/kg/injection, schedule: Q01DX Z (ip), vehicle: saline): 150 % of control
T/C (dose: 30.0 mg/kg/injection, schedule: Q01DX Z (oral), vehicle: saline): 100 % of control
T/C (dose: 60.0 mg/kg/injection, schedule: Q01DX Z (oral), vehicle: saline): 97 % of control
T/C (dose: 120.0 mg/kg/injection, schedule: Q01DX Z (oral), vehicle: saline): 107 % of control

COc1ccccc1C(=O)N/N=C/c1ccc(O)cc1O
T/C [15]: 102 % of control
T/C [17]: 96 % of control
T/C [19]: 100 % of control

Reference: PubChem BioAssay AID248 (DTP/NCI, 2004)
